Laboratory results taken from patent US20120252796A1, “COMPOUNDS FOR THE TREATMENT OF DYSLIPIDEMIA AND RELATED DISEASES” (priority 2009, published 2012).

Tests used:
PCSK9 [1] = target: T1, PCSK9 (Homo sapiens, UniProt Q8NBP7); test: PCSK9-LDLR in vitro Binding Assay (ELISA)
In short: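 Solid-phase ELISA: PCSK9 premixed with compound at varying concentrations added to immobilized recombinant LDLR-AB domain. Bound PCSK9 detected via biotinylated anti-His mAb and HRP-streptavidin, absorbance at 450 nm; EC50 by nonlinear regression from duplicate points.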
Target sequence in this assay (Q8NBP7 153-692): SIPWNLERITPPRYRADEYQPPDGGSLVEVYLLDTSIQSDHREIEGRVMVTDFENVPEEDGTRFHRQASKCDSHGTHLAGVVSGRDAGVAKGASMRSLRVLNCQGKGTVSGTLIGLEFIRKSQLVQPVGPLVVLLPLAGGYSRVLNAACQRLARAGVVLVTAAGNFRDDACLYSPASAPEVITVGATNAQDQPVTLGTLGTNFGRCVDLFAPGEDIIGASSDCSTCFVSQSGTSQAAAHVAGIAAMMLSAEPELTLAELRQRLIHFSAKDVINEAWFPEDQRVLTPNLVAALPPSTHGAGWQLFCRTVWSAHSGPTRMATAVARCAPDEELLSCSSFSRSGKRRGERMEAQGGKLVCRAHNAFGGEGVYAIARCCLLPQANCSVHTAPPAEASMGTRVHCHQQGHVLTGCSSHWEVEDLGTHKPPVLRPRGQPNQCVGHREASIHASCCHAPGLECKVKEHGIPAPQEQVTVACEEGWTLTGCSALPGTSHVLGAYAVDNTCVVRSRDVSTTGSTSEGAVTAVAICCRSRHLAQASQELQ
Target sequence in this assay (Q8NBP7 31-152 partner limits assumed): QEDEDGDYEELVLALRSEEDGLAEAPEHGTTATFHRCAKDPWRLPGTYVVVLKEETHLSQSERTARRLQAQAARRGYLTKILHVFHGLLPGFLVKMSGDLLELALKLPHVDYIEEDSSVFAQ

PCSK9 [2] = target: T1, PCSK9; test: SPR binding studies (BIACORE3000); settings: 25° C., phosphate buffer pH 7.4; compounds run at 10 nM, 100 nM and 1 micro mole, concentration of the value not stated
Experimental: Instrumentation: BIACORE3000 from GE Life Sciences was used and the Interaction analysis was performed at 25° C.
Buffers: phosphate buffer pH 7.4 supplied by Biacore supplemented with 0.01% dimethyl sulfoxide (DMSO) was used as running buffer during the assay.
Immobilization of Ligand: Sensor chip CM5 was used for analysis. The sensor chip consists of a carboxymethyl-modified dextran polymer linked to a gold-covered glass support. The ligand was diluted to 10 micro gram/ml in 10 mM sodium acetate, pH5.0 and immobilized to the sensor chip, using amine coupling. Running buffer without DMSO was used during immobilization. The surface was activated by injecting a solution containing 0.2M N-ethyl-N′-dimethyl aminopropyl-carbodiimide (EDC) and 50 mM N-hydroxy succinimide (NHS). The system was set for Aim for immobilization of about 1000 RU and the surface was blocked by injecting 1 Mehanolamine at pH 8.5. Then the surface was washed with 50 mM NaOH by injecting two 30 second-pulses to remove off non covalently bound ligand and to stabilize the baseline (automated procedure). Activated dextran was used as a reference surface. To ensure highest sensitivity the SPR Detector response was normalized before running the assay. By calibrating the detector at various light intensities under Conditions of total internal reflection (automated procedure). Solvent correction for DMSO was also carried to minimize the error in data.
Assay Design: A binding assay was set up for different compounds at three different concentrations (10 nM, 100 nM and 1 micro mole), and were injected over the reference and Ligand flow cells at a flow rate of 30 micro liter/min. Each cycle consisted of a 1-min waiting period for monitoring of the baseline stability and 3 minute injection of compound with a 5 minute Undisturbed dissociation phase, and the surface was regenerated with 50 mM NaoH solution. Compound responses in the reference flow cell were subtracted with that of ligand and a solvent correction run was carried in between and the binding potential of the compounds was reported as relative response units (RU).
Target sequence in this assay (Q8NBP7 153-692): as the sequence (Q8NBP7 153-692) above

[3] = system: LPS induced dyslipidemia model C57 mice; test: LDL-C lowering activity in LPS induced dyslipidemia model C57 mice; format: in vivo; settings: male C57 mice, i.p. or oral, 24 hours after LPS, vs Vehicle group
Experimental: Male C57 mice of 7-10 week age are grouped based on non-fasting LDL-C levels, on next day these mice were administered with Vehicle or test compounds (i.p. or oral) and 30 min after compound administration lipolysaccharide (LPS) was administered. After LPS administration all animals were kept on fasting for 24 hours, after that animals were bled and LDL-C was measured. The percent change in LDL-C in test compound group Vs Vehicle group was calculated.

[4] = system: HF-HC diet fed Syrian golden hamsters; test: Lipid lowering effect in HF-HC diet fed hamster model; format: in vivo; set-up: concentration or dose not given beside the values; settings: oral gavage once daily, day 14
Description: In this experiment, Syrian golden hamsters which were kept on high fat—high cholesterol (HF-HC) fructose diet for 2 weeks were divided into various groups based on LDL-C and Total cholesterol levels. The treatment was given by oral gavages once daily for 14 days. The blood was collected by retro-orbital sinus puncture method under light ether anesthesia on day 0 (pretreatment), and day 14 of the treatment for lipid levels measurements. The percent change in LDL-C in compound group Vs Vehicle group was calculated.

high fat diet C57 mice = test: LDL-C lowering activity in high fat diet C57 mice; format: in vivo; settings: C57 mice on high fat diet, orally once a day, 4-6 week treatment
Experimental: The in-vivo LDL-c lowering for test compound was tested in C57 mice which were kept on high fat diet for 4 weeks and the blood was collected by retro-orbital sinus puncture method under light ether anesthesia on day 0 (pretreatment), animal are grouped based on LDL-C levels, after that 4-6 week treatment with vehicle or test compound orally once a day was given. On completion of treatment on day 28 day and or on day 42 of the treatment the blood was collected for LDL-C levels measurement. The percent change in LDL-C in test compound group Vs Vehicle group was calculated.

Compound	inhibition at 10 µM (PCSK9 [1]; Concentration 10 μM) [%]	inhibition at 100 µM (PCSK9 [1]; Concentration 100 μM) [%]	Relative response (RU) (PCSK9 [2])	% Change in LDL-C [3] [%]	inhibition at 1 µM (PCSK9 [1]; Concentration 1 μM) [%]	also measured
Cc1oc(-c2ccccc2)nc1CC1COC(C)(C(=O)NO)OC1 (single isomer, unassigned) [Example 4, N-(Hydroxy)-2-methyl-5-((5-methyl-2-phenyloxazol-4-yl)methyl)-1,3-dioxane-2-carboxamide]	35	42	5.13	−29.4 ± 4.1		% Change Vs Vehicle Control HDL-C [4]: −25%; % Change Vs Vehicle Control LDL-C [4]: −24%; % Change Vs Vehicle Control TC [4]: −27%; % Change Vs Vehicle Control TG [4]: −35%; % Change Vs Vehicle Control HDL-C (high fat diet C57 mice): −5%; % Change Vs Vehicle Control LDL-C (high fat diet C57 mice): −24%; % Change Vs Vehicle Control TC (high fat diet C57 mice): −14%; % Change Vs Vehicle Control TG (high fat diet C57 mice): −35%
Cc1nc(-c2ccc(C(F)(F)F)cc2)sc1CC1COC(C)(C(=O)NO)OC1 (stereo not drawn) [Example 91, N-hydroxy-2-methyl-5-((4-methyl-2-(4-(trifluoromethyl)phenyl)thiazol-5-yl)methyl)-1,3-dioxane-2-carboxamide]	12	32		−37.4 ± 8.8	8	
Cc1oc(-c2ccccc2)nc1CCC1COC(C)(C(=O)N2CCOCC2)OC1 (stereo not drawn) [Example 40, (2-methyl-5-(2-(5-methyl-2-phenyloxazol-4-yl)ethyl)-1,3-dioxan-2-yl)(morpholino)methanone]	25	11		−34.1 ± 5.7	20	
Cc1oc(-c2ccncc2)nc1CC1COC(C)(C(=O)NCC2CCOCC2)OC1 (stereo not drawn) [Example 84, 2-methyl-5-c-((5-methyl-2-(pyridin-4-yl)oxazol-4-yl)methyl)-N—((tetrahydro-2H-pyran-4-yl)methyl)-1,3-dioxane-2-carboxamide]			2.23	−25.8 ± 8.6		% Inhibition PCSK9 (PCSK9 [1]; Concentration 1 μM, 1 µM): 25%; % Inhibition PCSK9 (PCSK9 [1]; Concentration 10 μM, 10 µM): 29%; % Inhibition PCSK9 (PCSK9 [1]; Concentration 100 μM, 100 µM): 65%
Cc1nc(-c2ccc(C(F)(F)F)cc2)sc1CC1COC(C)(C(=O)N2CCOCC2)OC1 (stereo not drawn) [Example 93, (2-methyl-5-((4-methyl-2-(4-(trifluoromethyl)phenyl)thiazol-5-yl)methyl)-1,3-dioxan-2-yl)(morpholino)methanone]	16	49		−46.0 ± 6.2	20	
1-(2-methyl-5-((4-methyl-2-(4-(trifluoromethyl)phenyl)thiazol-5-yl)methyl)-1,3-dioxan-2-yl)-N—((tetrahydro-2H-pyran-4-yl)methyl)methanamine [Example 92]				−35.8 ± 10.5		% Inhibition PCSK9 (PCSK9 [1]; Concentration 1 μM): 11%; % Inhibition PCSK9 (PCSK9 [1]; Concentration 10 μM): 26%; % Inhibition PCSK9 (PCSK9 [1]; Concentration 100 μM): 40%
